Values joined by “and” are separate entries in the source; they are usually repeats but may differ in a detail not shown here. Identical values can stand only once.
Tested on: 323965-272-R-J2-PDC complex spheroid viability
Assay: Anticancer human tumor 323965-272-R-J2-PDC patient-derived pancreatic carcinoma cell line growth inhibition [CLK]
Conditions: for viability, T/C: stronger effect = lower value
Method in brief: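 Patient-derived tumor cells grown as complex spheroids with HUVEC endothelial cells and mesenchymal stem cells, treated with drug combinations. Concentrations descend in half-log steps from near clinical Cmax, or from 10 microM if Cmax unknown.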

[1] = curve of first compound, second compound 0.0316 µM
[2] = curve of first compound, second compound 0.1 µM
[3] = curve of first compound, second compound 0.316 µM
[4] = curve of first compound, second compound 1 µM
[5] = curve of first compound, second compound 3.16 µM
[6] = curve of first compound, second compound 10 µM
[7] = second compound 0.0316 µM, first compound 0.0316 µM
[8] = second compound 0.0316 µM, first compound 0.1 µM
[9] = second compound 0.0316 µM, first compound 0.316 µM
[10] = second compound 0.0316 µM, first compound 1 µM
[11] = second compound 0.0316 µM, first compound 3.16 µM
[12] = second compound 0.0316 µM, first compound 10 µM
[13] = second compound 0.1 µM, first compound 0.0316 µM
[14] = second compound 0.1 µM, first compound 0.1 µM
[15] = second compound 0.1 µM, first compound 0.316 µM
[16] = second compound 0.1 µM, first compound 1 µM
[17] = second compound 0.1 µM, first compound 3.16 µM
[18] = second compound 0.1 µM, first compound 10 µM
[19] = second compound 0.316 µM, first compound 0.0316 µM
[20] = second compound 0.316 µM, first compound 0.1 µM
[21] = second compound 0.316 µM, first compound 0.316 µM
[22] = second compound 0.316 µM, first compound 1 µM
[23] = second compound 0.316 µM, first compound 3.16 µM
[24] = second compound 0.316 µM, first compound 10 µM
[25] = second compound 1 µM, first compound 0.0316 µM
[26] = second compound 1 µM, first compound 0.1 µM
[27] = second compound 1 µM, first compound 0.316 µM
[28] = second compound 1 µM, first compound 1 µM
[29] = second compound 1 µM, first compound 3.16 µM
[30] = second compound 1 µM, first compound 10 µM
[31] = second compound 3.16 µM, first compound 0.0316 µM
[32] = second compound 3.16 µM, first compound 0.1 µM
[33] = second compound 3.16 µM, first compound 0.316 µM
[34] = second compound 3.16 µM, first compound 1 µM
[35] = second compound 3.16 µM, first compound 3.16 µM
[36] = second compound 3.16 µM, first compound 10 µM
[37] = second compound 10 µM, first compound 0.0316 µM
[38] = second compound 10 µM, first compound 0.1 µM
[39] = second compound 10 µM, first compound 0.316 µM
[40] = second compound 10 µM, first compound 1 µM
[41] = second compound 10 µM, first compound 3.16 µM
[42] = second compound 10 µM, first compound 10 µM
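Also: spheroids exposed to agents for seven days before readout.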
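For viability, T/C in this document: percent of DMSO vehicle control wells so 100% = untreated growth.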

CC(CO)NC(=O)c1cc(-c2ccc(Cl)cc2)nn(-c2cnn(C)c2)c1=O (stereo not drawn) + CNC(=O)c1ccc(Nc2nc(OC3CCCC3)c3c(-c4ccc5nc(C)oc5c4)c[nH]c3n2)c(OC)c1
IC50 [1]: > 10 µM | IC50 [2]: > 10 µM | IC50 [3]: > 10 µM | IC50 [4]: < 0.0316 µM | IC50 [5]: < 0.0316 µM | IC50 [6]: < 0.0316 µM | viability, T/C [7]: 122% | viability, T/C [8]: 85.6% | viability, T/C [9]: 100% | viability, T/C [10]: 101% | viability, T/C [11]: 102% | viability, T/C [12]: 103% | viability, T/C [13]: 81.2% | viability, T/C [14]: 80.5% | viability, T/C [15]: 76.5% | viability, T/C [16]: 73.7% | viability, T/C [17]: 76.9% | viability, T/C [18]: 72.1% | viability, T/C [19]: 60% | viability, T/C [20]: 67.4% | viability, T/C [21]: 67.1% | viability, T/C [22]: 57.8% | viability, T/C [23]: 61% | viability, T/C [24]: 53.4% | viability, T/C [25]: 50.8% | viability, T/C [26]: 41.2% | viability, T/C [27]: 42.2% | viability, T/C [28]: 51.1% | viability, T/C [29]: 51.6% | viability, T/C [30]: 48.7% | viability, T/C [31]: 41.8% | viability, T/C [32]: 42.5% | viability, T/C [33]: 40.1% | viability, T/C [34]: 35.5% | viability, T/C [35]: 44.4% | viability, T/C [36]: 47.1% | viability, T/C [37]: 43.2% | viability, T/C [38]: 40.4% | viability, T/C [39]: 36.8% | viability, T/C [40]: 43.1% | viability, T/C [41]: 41.5% | viability, T/C [42]: 41.4%

COc1c(OCCCN2CCOCC2)ccc2c3n(c(=NC(=O)c4cnc(N)nc4)nc12)CCN3
viability, T/C (compound 0.00316 µM): 98.5% and 103% | viability, T/C (compound 0.01 µM): 80.8% and 72.1% | viability, T/C (compound 0.0316 µM): 62% and 54.2% | viability, T/C (compound 0.1 µM): 46.6% and 45.2% | viability, T/C (compound 0.316 µM): 38.4% and 31% | viability, T/C (compound 1 µM): 27.7% and 21.9% | IC50 (curve of compound): 0.0836 µM and 0.0481 µM

Nc1ccccc1NC(=O)c1ccc(CNC(=O)OCc2cccnc2)cc1
viability, T/C (compound 0.0316 µM): 115% and 110% | viability, T/C (compound 0.1 µM): 103% and 104% | viability, T/C (compound 0.316 µM): 101% and 95.5% | viability, T/C (compound 1 µM): 89.1% and 86.3% | viability, T/C (compound 3.16 µM): 72.6% and 61.8% | viability, T/C (compound 10 µM): 47.9% and 43.9% | IC50 (curve of compound): 9.39 µM and 6.89 µM

CC(=O)O[C@H]1C(=O)[C@@]2(C)[C@H]([C@H](OC(=O)c3ccccc3)[C@]3(O)C[C@H](OC(=O)[C@H](O)[C@@H](NC(=O)c4ccccc4)c4ccccc4)C(C)=C1C3(C)C)[C@]1(OC(C)=O)CO[C@@H]1C[C@@H]2O + CN1CCN(c2cc(C(=O)Nc3cc4cc(-c5cnn(C)c5)ccc4cn3)ccn2)CC1
IC50 [1]: < 0.0316 µM | IC50 [2]: < 0.0316 µM | IC50 [3]: < 0.0316 µM | IC50 [4]: < 0.0316 µM | IC50 [5]: < 0.0316 µM | IC50 [6]: < 0.0316 µM | viability, T/C [7]: 33.2% | viability, T/C [8]: 34.3% | viability, T/C [9]: 31.7% | viability, T/C [10]: 33% | viability, T/C [11]: 34.8% | viability, T/C [12]: 30.4% | viability, T/C [13]: 28.3% | viability, T/C [14]: 28.1% | viability, T/C [15]: 24.7% | viability, T/C [16]: 25.9% | viability, T/C [17]: 26.7% | viability, T/C [18]: 28.5% | viability, T/C [19]: 19.8% | viability, T/C [20]: 19.3% | viability, T/C [21]: 19% | viability, T/C [22]: 19.5% | viability, T/C [23]: 17.2% | viability, T/C [24]: 16.9% | viability, T/C [25]: 3.79% | viability, T/C [26]: 3.19% | viability, T/C [27]: 3.35% | viability, T/C [28]: 2.94% | viability, T/C [29]: 3.34% | viability, T/C [30]: 3.64% | viability, T/C [31]: 3.67% | viability, T/C [32]: 6.44% | viability, T/C [33]: 4.39% | viability, T/C [34]: 4.7% | viability, T/C [35]: 3.88% | viability, T/C [36]: 5.16% | viability, T/C [37]: 4.53% | viability, T/C [38]: 4.6% | viability, T/C [39]: 4.22% | viability, T/C [40]: 3.5% | viability, T/C [41]: 3.95% | viability, T/C [42]: 3.79%
